Results reported in patent US20240208956A1, “1,3,4-OXADIAZOLE THIOCARBONYL COMPOUNDS AS HISTONE DEACETYLASE 6 INHIBITOR, AND PHARMACEUTICAL COMPOSITION COMPRISING THE SAME” (CHONG KUN DANG PHARMACEUTICAL CORP., priority 2021, published 2024).

Tests used:
HDAC1 = HDAC1 (Homo sapiens (Human), UniProt Q13547); test: HDAC enzyme activity inhibition (in vitro), HDAC1 Fluorimetric Drug Discovery Assay Kit; type: biochemical; settings: samples at 100, 1000 and 10000 nM; 37° C. 60 minutes; fluorescence Ex 390 nm, Em 460 nm
Chain of HDAC1 (Q13547 whole entry): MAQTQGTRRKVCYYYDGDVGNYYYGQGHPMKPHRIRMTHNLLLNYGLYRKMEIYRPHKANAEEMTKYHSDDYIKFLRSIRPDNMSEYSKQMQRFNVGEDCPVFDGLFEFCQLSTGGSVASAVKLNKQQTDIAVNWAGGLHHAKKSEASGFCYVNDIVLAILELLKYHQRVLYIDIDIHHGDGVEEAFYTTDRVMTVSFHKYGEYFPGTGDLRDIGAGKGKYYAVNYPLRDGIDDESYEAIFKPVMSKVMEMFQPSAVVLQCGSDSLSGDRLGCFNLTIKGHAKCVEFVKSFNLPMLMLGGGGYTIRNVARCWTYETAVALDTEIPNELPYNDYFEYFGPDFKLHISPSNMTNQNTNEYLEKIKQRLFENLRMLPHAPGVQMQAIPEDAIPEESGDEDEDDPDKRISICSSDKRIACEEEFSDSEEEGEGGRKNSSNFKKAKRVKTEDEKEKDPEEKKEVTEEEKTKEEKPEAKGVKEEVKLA
Experimental: Experimental Example 1. Confirmation of HDAC Enzyme Activity Inhibition (In Vitro)
(§1) An HDAC enzyme inhibitory capacity of test material was measured by using HDAC1 Fluorimetric Drug Discovery Assay Kit (Enzolifesciences: BML-AK511) and HDAC6 human recombinant (Calbiochem: 382180). For a HDAC1 assay, samples were treated at a concentration of 100 nM, 1000 nM and 10000 nM. For an HDAC6 assay, samples were treated at a concentration of 0.1 nM, 1 nM, 10 nM, 100 nM and 1000 nM. After the sample treatment, a reaction was continued at 37° C. for 60 minutes, treated with a developer, and subjected to reaction at 37° C. for 30 minutes, after which fluorescence intensity (Ex 390 nm, Em 460 nm) was measured by using FlexStation3 (Molecular device). For final result values, each […] value was calculated with GraphPad Prism 4.0 program.

HDAC6 human recombinant = HDAC6 human recombinant (Homo sapiens (Human), UniProt Q9UBN7); test: HDAC enzyme activity inhibition (in vitro), HDAC6 fluorimetric assay; type: biochemical; settings: samples at 0.1-1000 nM; 37° C. 60 minutes; fluorescence Ex 390 nm, Em 460 nm
Chain of HDAC6 human recombinant (Q9UBN7 whole entry): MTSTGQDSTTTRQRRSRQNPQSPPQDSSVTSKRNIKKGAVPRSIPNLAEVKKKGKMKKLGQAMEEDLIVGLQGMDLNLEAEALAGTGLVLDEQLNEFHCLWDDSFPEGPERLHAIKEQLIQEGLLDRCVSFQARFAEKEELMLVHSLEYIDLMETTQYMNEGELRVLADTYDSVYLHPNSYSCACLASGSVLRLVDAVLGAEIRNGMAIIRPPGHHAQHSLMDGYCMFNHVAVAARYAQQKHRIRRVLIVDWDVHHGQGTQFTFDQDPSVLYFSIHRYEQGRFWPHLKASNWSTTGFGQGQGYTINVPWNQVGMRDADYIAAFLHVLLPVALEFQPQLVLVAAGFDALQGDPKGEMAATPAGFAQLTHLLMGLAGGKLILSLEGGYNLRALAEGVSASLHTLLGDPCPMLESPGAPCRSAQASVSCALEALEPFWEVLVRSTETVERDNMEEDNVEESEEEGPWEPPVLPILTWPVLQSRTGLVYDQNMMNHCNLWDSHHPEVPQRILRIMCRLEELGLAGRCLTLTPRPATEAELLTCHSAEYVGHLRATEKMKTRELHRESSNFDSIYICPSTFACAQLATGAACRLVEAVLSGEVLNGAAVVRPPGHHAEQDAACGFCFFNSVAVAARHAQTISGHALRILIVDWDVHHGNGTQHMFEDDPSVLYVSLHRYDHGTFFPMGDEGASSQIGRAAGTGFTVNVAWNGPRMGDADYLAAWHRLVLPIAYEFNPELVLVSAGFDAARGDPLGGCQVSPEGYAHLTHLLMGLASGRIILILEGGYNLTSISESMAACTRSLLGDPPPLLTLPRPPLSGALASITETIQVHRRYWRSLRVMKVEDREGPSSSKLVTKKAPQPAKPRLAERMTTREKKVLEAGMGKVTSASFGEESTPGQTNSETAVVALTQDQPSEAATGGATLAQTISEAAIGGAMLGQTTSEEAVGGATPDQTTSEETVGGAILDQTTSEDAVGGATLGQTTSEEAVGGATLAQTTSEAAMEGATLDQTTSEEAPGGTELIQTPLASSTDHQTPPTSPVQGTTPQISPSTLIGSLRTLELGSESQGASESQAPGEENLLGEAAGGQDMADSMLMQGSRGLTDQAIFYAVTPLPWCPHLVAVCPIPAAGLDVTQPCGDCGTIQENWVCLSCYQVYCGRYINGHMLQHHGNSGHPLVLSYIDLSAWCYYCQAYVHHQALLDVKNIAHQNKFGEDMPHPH
Experimental: Confirmation of HDAC Enzyme Activity Inhibition (In Vitro)
as §1

IC50 (HDAC1) | IC50 (HDAC6 human recombinant) | SMILES
> 10 µM |  | Fc1cc(-c2nnc(C(F)F)o2)ccc1CN(C(=S)N1CCOCC1)c1ccccc1 [Compound 1, N-(4-(5-(difluoromethyl)-1,3,4-oxadiazol-2-yl)-2-fluorobenzyl)-N-phenylmorpholin-4-carbothioamide]
> 10 µM | 0.066 µM | FC(F)c1nnc(-c2ccc(CN(C(=S)N3CCOCC3)c3ccccc3)nc2)o1 [Compound 2, N-((5-(5-(difluoromethyl)-1,3,4-oxadiazol-2-yl)pyridin-2-yl)methyl)-N-phenylmorpholin-4-carbothioamide]
> 10 µM | 0.037 µM | CN1CCN(C(=S)N(Cc2ccc(-c3nnc(C(F)F)o3)cc2)c2ccccc2)CC1 [Compound 4, N-(4-(5-(difluoromethyl)-1,3,4-oxadiazol-2-yl)benzyl)-4-methyl-N-phenylpiperazin-1-carbothioamide]
> 10 µM | 0.037 µM | FC(F)c1nnc(-c2ccc(CN(C(=S)N3CCN(C4COC4)CC3)c3ccccc3)cc2)o1 [Compound 5, N-(4-(5-(difluoromethyl)-1,3,4-oxadiazol-2-yl)benzyl)-4-(oxetan-3-yl)-N-phenylpiperazin-1-carbothioamide]
> 10 µM | 0.031 µM | O=S1(=O)CCN(C(=S)N(Cc2ccc(-c3nnc(C(F)F)o3)cn2)c2ccccc2)CC1 [Compound 6, N-((5-(5-(difluoromethyl)-1,3,4-oxadiazol-2-yl)pyridin-2-yl)methyl)-N-phenylthiomorpholin-4-carbothioamide 1,1-dioxide]
> 10 µM |  | CN1CCN(C(=S)N(Cc2ccc(-c3nnc(C(F)F)o3)cc2F)c2ccccc2)CC1 [Compound 7, N-(4-(5-(difluoromethyl)-1,3,4-oxadiazol-2-yl)-2-fluorobenzyl)-4-methyl-N-phenylpiperazin-1-carbothioamide]
> 10 µM | 0.075 µM | CN1CCC2(CC1)CC(C(=S)N(Cc1ccc(-c3nnc(C(F)F)o3)cc1F)c1ccccc1)C2 [Compound 8, N-(4-(5-(difluoromethyl)-1,3,4-oxadiazol-2-yl)-2-fluorobenzyl)-7-methyl-N-phenyl-7-azaspiro[3.5]nonan-2-carbothioamide]
> 10 µM | 0.138 µM | Fc1cc(-c2nnc(C(F)F)o2)ccc1CN(C(=S)c1ccncc1)c1ccccc1 [Compound 9, N-(4-(5-(difluoromethyl)-1,3,4-oxadiazol-2-yl)-2-fluorobenzyl)-N-phenylpyridin-4-carbothioamide]
> 10 µM | 0.045 µM | CN1CC2(C1)CN(C(=S)N(Cc1ccc(-c3nnc(C(F)F)o3)cc1F)c1ccccc1)C2 [Compound 10, N-(4-(5-(difluoromethyl)-1,3,4-oxadiazol-2-yl)-2-fluorobenzyl)-6-methyl-N-phenyl-2,6-diazaspiro[3.3]heptan-2-carbothioamide]
> 10 µM | 0.05 µM | Fc1cc(-c2nnc(C(F)F)o2)ccc1CN(C(=S)N1CC2(C1)CN(C1COC1)C2)c1ccccc1 [Compound 11, N-(4-(5-(difluoromethyl)-1,3,4-oxadiazol-2-yl)-2-fluorobenzyl)-6-(oxetan-3-yl)-N-phenyl-2,6-diazaspiro[3.3]heptan-2-carbothioamide]
> 10 µM | 0.135 µM | CN1CC2(C1)CN(C(=S)N(Cc1ccc(-c3nnc(C(F)F)o3)cc1F)c1ccc(F)cc1F)C2 [Compound 12, N-(4-(5-(difluoromethyl)-1,3,4-oxadiazol-2-yl)-2-fluorobenzyl)-N-(2,4-difluorophenyl)-6-methyl-2,6-diazaspiro[3.3]heptan-2-carbothioamide]
> 10 µM | 0.076 µM | CN1CC2(C1)CN(C(=S)N(Cc1ccc(-c3nnc(C(F)F)o3)cc1F)c1ccc(F)c(F)c1)C2 [Compound 13, N-(4-(5-(difluoromethyl)-1,3,4-oxadiazol-2-yl)-2-fluorobenzyl)-N-(3,4-difluorophenyl)-6-methyl-2,6-diazaspiro[3.3]heptan-2-carbothioamide]
> 10 µM | 0.039 µM | CN1CC2(C1)CN(C(=S)N(Cc1ccc(-c3nnc(C(F)F)o3)cc1)c1cccc(F)c1)C2 [Compound 14, N-(4-(5-(difluoromethyl)-1,3,4-oxadiazol-2-yl)benzyl)-N-(3-fluorophenyl)-6-methyl-2,6-diazaspiro[3.3]heptan-2-carbothioamide]
> 10 µM | 0.054 µM | Fc1cccc(N(Cc2ccc(-c3nnc(C(F)F)o3)cc2)C(=S)N2CC3(C2)CN(C2COC2)C3)c1 [Compound 15, N-(4-(5-(difluoromethyl)-1,3,4-oxadiazol-2-yl)benzyl)-N-(3-fluorophenyl)-6-(oxetan-3-yl)-2,6-diazaspiro[3.3]heptan-2-carbothioamide]
> 10 µM | 0.063 µM | CC(C)N1CC2(CN(C(=S)N(Cc3ccc(-c4nnc(C(F)F)o4)cc3)c3cccc(F)c3)C2)C1 [Compound 16, N-(4-(5-(difluoromethyl)-1,3,4-oxadiazol-2-yl)benzyl)-N-(3-fluorophenyl)-6-isopropyl-2,6-diazaspiro[3.3]heptan-2-carbothioamide]
> 10 µM | 0.041 µM | CN1CC2(C1)CN(C(=S)N(Cc1ccc(-c3nnc(C(F)F)o3)cc1F)c1ccc(F)cc1)C2 [Compound 17, N-(4-(5-(difluoromethyl)-1,3,4-oxadiazol-2-yl)-2-fluorobenzyl)-N-(4-fluorophenyl)-6-methyl-2,6-diazaspiro[3.3]heptan-2-carbothioamide]
> 10 µM | 0.061 µM | CC(C)N1CC2(CN(C(=S)N(Cc3ccc(-c4nnc(C(F)F)o4)cc3F)c3ccc(F)cc3)C2)C1 [Compound 18, N-(4-(5-(difluoromethyl)-1,3,4-oxadiazol-2-yl)-2-fluorobenzyl)-N-(4-fluorophenyl)-6-isopropyl-2,6-diazaspiro[3.3]heptan-2-carbothioamide]
> 10 µM | 0.054 µM | Fc1ccc(N(Cc2ccc(-c3nnc(C(F)F)o3)cc2F)C(=S)N2CC3(C2)CN(C2COC2)C3)cc1 [Compound 19, N-(4-(5-(difluoromethyl)-1,3,4-oxadiazol-2-yl)-2-fluorobenzyl)-N-(4-fluorophenyl)-6-(oxetan-3-yl)-2,6-diazaspiro[3.3]heptan-2-carbothioamide]
> 10 µM |  | Fc1ccc(N(Cc2ccc(-c3nnc(C(F)F)o3)cc2F)C(=S)N2CC3(COC3)C2)cc1F [Compound 35, N-(4-(5-(difluoromethyl)-1,3,4-oxadiazol-2-yl)-2-fluorobenzyl)-N-(3,4-difluorophenyl)-2-oxa-6-azaspiro[3.3]heptan-6-carbothioamide]
> 10 µM |  | CN1C[C@@H]2C[C@H]1CN2C(=S)N(Cc1ccc(-c2nnc(C(F)F)o2)cc1F)c1ccc(F)c(F)c1 [Compound 42, (1S,4S)—N-(4-(5-(difluoromethyl)-1,3,4-oxadiazol-2-yl)-2-fluorobenzyl)-N-(3,4-difluorophenyl)-5-methyl-2,5-diazabicyclo[2.2.1]heptan-2-carbothioamide]

SMILES | IC50 (HDAC1) | IC50 (HDAC6 human recombinant)
FC(F)c1nnc(-c2ccc(CN(C(=S)N3CCOCC3)c3ccccc3)cc2)o1 [Compound 3, N-(4-(5-(difluoromethyl)-1,3,4-oxadiazol-2-yl)benzyl)-N-phenylmorpholin-4-carbothioamide] | > 10 µM | 0.037 µM
